The subject of the assay is rat pituitary cells. Briefly: Bioassay of hGRF analogs: stimulation of growth hormone release in rat pituitary cells in tissue culture. The assay is classed as cell-based. To be noted: for Dose Needed to Release 2.01 μg/ml of GH: 2.01 μg/ml = GH released at the ED50 of hGRF; for Dose Needed to Release 2.01 μg/ml of GH / Relative Maximum Activity (% of hGRF): from ALLFIT curves; for Potency: (ED50 of hGRF)/(Dose required to give same response as ED50 of hGRF). From the text: The assay for biological activity, which is based on the ability to stimulate release of growth hormone in rat pituitary cells in tissue culture, has been described in detail (Culler, M. D.; Kenjo, T.: Obara, N.; Arimuar, A., Stimulation of cAMP. Accumulation by Human Pancreatic GH-Releasing Factor(1-44). Am. J. Physiol. 1984, 247 (Endocrinol.Metab. 10). E609-E615.
ALLFIT, the 4-parameter logistic curve fitting program available from the Biomedical Computer Technology Information Center, Vanderbilt Medical Center, Nashville Tenn., was used to determine ED50 and maximal stimulated values from the data. In several instances, the amount of GH released reached a maximum value and decreased with further increasing doses of the hGRF analogs. To simplify the data analysis, these values were not used in the calculations. The calculated maximal responses, the doses of the analog required to release the amount of GH released at the ED50 of the standard (hGRF) and the potencies of the analogs relative to hGRF, are given in Table 2. Generally all novel analogs were fully active and were able to stimulate the release of growth hormone with maximal values of GH release being within 80% of the value for natural hGRF.

Square brackets hold non-standard residues; d marks the D form. Peptide text beside a SMILES is read from it. Nle = CCCC[C@H](N)C(=O)O

The record followed here is patent USRE33699E, “Growth hormone-releasing factor analogs” (International Minerals & Chemical Corp., priority 1990, dated 1991).

With `CCCC[C@H](NC(=O)[C@@H](NC(=O)[C@H](CC(N)=O)NC(=O)[C@H](CCC(N)=O)NC(=O)[C@H](CC(C)C)NC(=O)[C@H](CC(C)C)NC(=O)[C@H](CCCCN)NC(=O)[C@H](CCCNC(=N)N)NC(=O)[C@H](C)NC(=O)[C@H](CO)NC(=O)[C@H](CC(C)C)NC(=O)[C@H](CCC(N)=O)NC(=O)CNC(=O)[C@H](CC(C)C)NC(=O)[C@@H](NC(=O)[C@H](CCCCN)NC(=O)[C@H](CCCNC(=N)N)NC(=O)[C@H](Cc1ccc(O)cc1)NC(=O)[C@H](CO)NC(=O)[C@H](CC(N)=O)NC(=O)[C@@H](NC(=O)[C@H](Cc1ccccc1)NC(=O)[C@@H](NC(=O)[C@H](C)NC(=O)[C@H](CC(N)=O)NC(=O)[C@H](C)NC(=O)[C@@H](N)Cc1ccc(O)cc1)[C@@H](C)CC)[C@@H](C)O)C(C)C)[C@@H](C)CC)C(=O)N[C@@H](CO)C(=O)N[C@@H](CCCNC(=N)N)C(=O)N[C@@H](CCC(N)=O)C(=O)N[C@@H](CCC(N)=O)C(N)=O` [[Asn^3, Asn^25, Nle^27]-hGRF(1-31)--NH2, [Asn^3,Asn^25,Nle^27]-hGRF (1-31)--NH2] (H-YANAIFTNSYRKVLGQLSARKLLQNI[Nle]SRQQ-NH2), the “Dose Needed to Release 2.01 μg/ml of GH” value is listed as 1.54 nM, the Potency is 21% and the “Relative Maximum Activity (% of hGRF)” value is 101 % of hGRF.

On to `CCCC[C@H](NC(=O)[C@@H](NC(=O)[C@H](CC(=O)O)NC(=O)[C@H](CCC(N)=O)NC(=O)[C@H](CC(C)C)NC(=O)[C@H](CC(C)C)NC(=O)[C@H](CCCCN)NC(=O)[C@H](CCCNC(=N)N)NC(=O)[C@H](C)NC(=O)[C@H](CO)NC(=O)[C@H](CC(C)C)NC(=O)[C@H](CCC(N)=O)NC(=O)CNC(=O)[C@H](CC(C)C)NC(=O)[C@@H](NC(=O)[C@H](CCCCN)NC(=O)[C@H](CCCNC(=N)N)NC(=O)[C@H](Cc1ccc(O)cc1)NC(=O)[C@H](CO)NC(=O)[C@H](CC(N)=O)NC(=O)[C@@H](NC(=O)[C@H](Cc1ccccc1)NC(=O)[C@@H](NC(=O)[C@H](C)NC(=O)[C@H](CC(N)=O)NC(=O)[C@H](C)NC(=O)[C@@H](N)Cc1ccc(O)cc1)[C@@H](C)CC)[C@@H](C)O)C(C)C)[C@@H](C)CC)C(=O)N[C@@H](CO)C(=O)N[C@@H](CCCNC(=N)N)C(=O)N[C@@H](CCC(N)=O)C(=O)N[C@@H](CCC(N)=O)C(N)=O` [[Asn^3, Nle^27]-hGRF(1-31)--NH2] (H-YANAIFTNSYRKVLGQLSARKLLQDI[Nle]SRQQ-NH2), for which the “Dose Needed to Release 2.01 μg/ml of GH” value came to 0.58 nM, the Potency is 55% and the “Relative Maximum Activity (% of hGRF)” value is listed as 93 % of hGRF.

Turning to `CCCC[C@H](NC(=O)[C@@H](NC(=O)[C@H](CC(N)=O)NC(=O)[C@H](CCC(N)=O)NC(=O)[C@H](CC(C)C)NC(=O)[C@H](CC(C)C)NC(=O)[C@H](CCCCN)NC(=O)[C@H](CCCNC(=N)N)NC(=O)[C@H](C)NC(=O)[C@H](CO)NC(=O)[C@H](CC(C)C)NC(=O)[C@H](CCC(N)=O)NC(=O)CNC(=O)[C@H](CC(C)C)NC(=O)[C@@H](NC(=O)[C@H](CCCCN)NC(=O)[C@H](CCCNC(=N)N)NC(=O)[C@H](Cc1ccc(O)cc1)NC(=O)[C@H](CO)NC(=O)[C@H](CC(=O)O)NC(=O)[C@@H](NC(=O)[C@H](Cc1ccccc1)NC(=O)[C@@H](NC(=O)[C@H](C)NC(=O)[C@H](CC(=O)O)NC(=O)[C@H](C)NC(=O)[C@@H](N)Cc1ccc(O)cc1)[C@@H](C)CC)[C@@H](C)O)C(C)C)[C@@H](C)CC)C(=O)N[C@@H](CO)C(=O)N[C@@H](CCCNC(=N)N)C(=O)N[C@@H](CCC(N)=O)C(=O)N[C@@H](CCC(N)=O)C(N)=O` [[Asp^8, Asn^25, Nle^27]-hGRF(1-31)--NH2, [Asp^8,Asn^25,Nle^27]-hGRF(1-31)--NH2] (H-YADAIFTDSYRKVLGQLSARKLLQNI[Nle]SRQQ-NH2), the “Dose Needed to Release 2.01 μg/ml of GH” value is 0.42 nM, the Potency is given as 76% and the “Relative Maximum Activity (% of hGRF)” value is listed as 87 % of hGRF.

On to `CCCC[C@H](NC(=O)[C@@H](NC(=O)[C@H](CC(=O)O)NC(=O)[C@H](CCC(N)=O)NC(=O)[C@H](CC(C)C)NC(=O)[C@H](CC(C)C)NC(=O)[C@H](CCCCN)NC(=O)[C@H](CCCNC(=N)N)NC(=O)[C@H](C)NC(=O)[C@H](CO)NC(=O)[C@H](CC(C)C)NC(=O)[C@H](CCC(N)=O)NC(=O)CNC(=O)[C@H](CC(C)C)NC(=O)[C@@H](NC(=O)[C@H](CCCCN)NC(=O)[C@H](CCCNC(=N)N)NC(=O)[C@H](Cc1ccc(O)cc1)NC(=O)[C@H](CO)NC(=O)[C@H](CC(=O)O)NC(=O)[C@@H](NC(=O)[C@H](Cc1ccccc1)NC(=O)[C@@H](NC(=O)[C@H](C)NC(=O)[C@H](CC(N)=O)NC(=O)[C@H](C)NC(=O)[C@@H](N)Cc1ccc(O)cc1)[C@@H](C)CC)[C@@H](C)O)C(C)C)[C@@H](C)CC)C(=O)N[C@@H](CO)C(=O)N[C@@H](CCCNC(=N)N)C(=O)N[C@@H](CCC(N)=O)C(=O)N[C@@H](CCC(N)=O)C(N)=O` [[Asn^3, Asp^8, Nle^27]-hGRF(1-31)--NH2, [Asn^3,Asp^8,Nle^27]-hGRF(1-31)--NH2] (H-YANAIFTDSYRKVLGQLSARKLLQDI[Nle]SRQQ-NH2), for which the “Dose Needed to Release 2.01 μg/ml of GH” value was found to be 6.74 nM, the Potency is given as 3% and the “Relative Maximum Activity (% of hGRF)” value was 107 % of hGRF. Further, the Potency (Asp^8, Nle^27 ]) was 5%.

As for `CC[C@H](C)[C@H](NC(=O)[C@H](C)NC(=O)[C@H](CC(=O)O)NC(=O)[C@H](C)NC(=O)[C@@H](N)Cc1ccc(O)cc1)C(=O)N[C@@H](Cc1ccccc1)C(=O)N[C@H](C(=O)N[C@@H](CC(N)=O)C(=O)N[C@@H](CO)C(=O)N[C@@H](Cc1ccc(O)cc1)C(=O)N[C@@H](CCCNC(=N)N)C(=O)N[C@@H](CCCCN)C(=O)N[C@H](C(=O)N[C@@H](CC(C)C)C(=O)NCC(=O)N[C@@H](CCC(N)=O)C(=O)N[C@@H](CC(C)C)C(=O)N[C@@H](CO)C(=O)N[C@@H](C)C(=O)N[C@@H](CCCNC(=N)N)C(=O)N[C@@H](CCCCN)C(=O)N[C@@H](CC(C)C)C(=O)N[C@@H](CC(C)C)C(=O)N[C@@H](CCC(N)=O)C(=O)N[C@@H](CC(=O)O)C(=O)N[C@H](C(=O)N[C@@H](CCSC)C(=O)N[C@@H](CO)C(=O)N[C@@H](CCCNC(=N)N)C(=O)N[C@@H](CCC(N)=O)C(=O)N[C@@H](CCC(N)=O)C(=O)NCC(=O)N[C@@H](CCC(=O)O)C(=O)N[C@@H](CO)C(=O)N[C@@H](CC(N)=O)C(=O)N[C@@H](CCC(N)=O)C(=O)N[C@@H](CCC(=O)O)C(=O)N[C@@H](CCCNC(=N)N)C(=O)NCC(=O)N[C@@H](C)C(=O)N[C@@H](CCCNC(=N)N)C(=O)N[C@@H](C)C(=O)N[C@@H](CCCNC(=N)N)C(=O)N[C@@H](CC(C)C)C(N)=O)[C@@H](C)CC)C(C)C)[C@@H](C)O` [hGRF(1-44)--NH2, reference compound], the “Dose Needed to Release 2.01 μg/ml of GH” value stood at 0.32 nM, the Potency is reported as 100% and the “Relative Maximum Activity (% of hGRF)” value is given as 100 % of hGRF.
